In ChEMBL document CHEMBL1201862, “PubChem BioAssay data set” (2004):
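Results reflect a 48-hour exposure of cells in 96-well plates to compound at five concentrations. GI50 = concentration required for 50% inhibition of growth.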 Active and inactive are the calls of the source. No stated cut-off is given here; in the data, active = GI50 up to about 1.1 µM and inactive = higher.

How the values were obtained:
Assay in all cases: NCI-60 cell line screen, 48 h
[1] = system: ACHN
[2] = system: HCC 2998
[3] = system: LOX IMVI
[4] = system: OVCAR-3
[5] = system: OVCAR-4
[6] = system: SF-268
[7] = system: SF-295
[8] = system: SF-539
[9] = system: SK-OV-3
[10] = system: SNB-19
[11] = system: SW-620
[12] = system: UO-31
[13] = system: SK-MEL-28
[14] = system: SNB-75

Measured: GI50

O=C(CCC(=O)C(C(=O)c1ccccc1)c1ccccc1)Nc1cccc(C(F)(F)F)c1 (stereo not given)
inactive: [1] > 100 µM | [2] > 100 µM | [3] > 100 µM | [4] > 100 µM | [5] > 100 µM | [6] > 100 µM | [7] > 100 µM | [8] > 100 µM | [9] > 100 µM | [10] > 100 µM | [11] > 100 µM | [12] > 100 µM

COCOCc1cc(OCc2ccccc2)c(OC)cc1Br
inactive: [1] 82.6 µM | [3] 52.8 µM | [4] > 100 µM | [5] > 100 µM | [6] 84.9 µM | [7] > 100 µM | [8] > 100 µM | [13] > 100 µM | [10] > 100 µM | [14] > 100 µM | [11] > 100 µM

O=C(Nc1c(O)[nH]c(=S)[nH]c1=O)c1ccccc1
inactive: [1] > 100 µM | [3] > 100 µM | [4] > 100 µM | [5] > 100 µM | [6] > 100 µM | [7] > 100 µM | [8] > 100 µM | [13] > 100 µM | [9] > 100 µM | [10] > 100 µM | [14] > 100 µM | [11] > 100 µM | [12] > 100 µM

O=C(NCC#CCO)C(F)(F)F
inactive: [1] > 100 µM | [2] > 100 µM | [3] > 100 µM | [5] > 100 µM | [6] > 100 µM | [7] > 10 µM | [8] > 100 µM | [13] > 100 µM | [9] 97.5 µM | [10] > 100 µM | [11] > 100 µM | [12] > 100 µM

COc1ccc(-c2onc(-c3ccc([N+](=O)[O-])cc3)c2C2=NCCN2)cc1
inactive: [1] 38.1 µM | [2] > 100 µM | [3] 79.6 µM | [4] > 100 µM | [5] 60.1 µM | [6] 72.3 µM | [7] 35.2 µM | [8] 38 µM | [13] > 100 µM | [10] 50.5 µM | [14] 20.9 µM | [11] > 100 µM | [12] 29.6 µM

N#CC(C#N)=c1c2nsnc2c(=C(C#N)C#N)c2nsnc12
inactive: [1] 1.81 µM | [2] 1.77 µM | [3] 1.58 µM | [4] 3.66 µM | [5] 1.96 µM | [6] 2.3 µM | [7] 1.89 µM | [8] 1.93 µM | [13] 1.87 µM | [10] 2.16 µM | [14] 1.51 µM | [11] 1.47 µM | [12] 1.84 µM

COc1ccc2c(C(=O)O)cc3ccccc3c2c1OC
inactive: [1] 16.3 µM | [2] 21.2 µM | [3] 17.6 µM | [4] 16.6 µM | [6] 19.4 µM | [7] 47 µM | [8] 23.7 µM | [13] 18.5 µM | [9] 38.5 µM | [10] 43.6 µM | [14] 28.4 µM | [11] 19.4 µM | [12] 17.2 µM

O=[N+]([O-])C(=C(c1ccccc1)c1ccccc1)[N+](=O)[O-]
inactive: [1] 12.8 µM | [2] 11.4 µM | [3] 2.96 µM | [4] 20.7 µM | [5] 14.5 µM | [6] 4.57 µM | [7] 13.5 µM | [8] 13.6 µM | [13] 7.98 µM | [10] 15.7 µM | [14] 10.2 µM | [11] 11.4 µM | [12] 22.1 µM

CN/N=C(\C)CC(=O)Nc1cccc(Cl)c1C
inactive: [1] > 100 µM | [2] > 100 µM | [3] > 100 µM | [4] > 100 µM | [5] > 100 µM | [6] > 100 µM | [7] > 100 µM | [8] > 100 µM | [13] > 100 µM | [9] > 100 µM | [10] > 100 µM | [14] > 100 µM | [12] > 100 µM

O=C(/C=C/c1ccc(OCCCOc2ccc(/C=C/C(=O)c3ccccc3)cc2)cc1)c1ccccc1
inactive: [1] > 100 µM | [2] > 100 µM | [3] > 100 µM | [4] > 100 µM | [5] > 100 µM | [6] > 100 µM | [7] > 100 µM | [8] > 100 µM | [13] > 100 µM | [10] 63.2 µM | [14] 33.4 µM | [11] > 100 µM | [12] > 100 µM

CC(C)(C)C(=O)Nc1ccccc1Br
inactive: [1] > 100 µM | [2] > 100 µM | [3] > 100 µM | [4] > 100 µM | [5] > 100 µM | [7] > 100 µM | [13] > 100 µM | [9] > 100 µM | [10] > 100 µM | [14] > 100 µM | [11] > 100 µM | [12] > 100 µM

CCOC(=O)CCn1cnc(N)n1
inactive: [1] > 100 µM | [2] > 100 µM | [3] > 100 µM | [4] > 100 µM | [5] > 100 µM | [7] > 100 µM | [8] > 100 µM | [13] > 100 µM | [9] > 100 µM | [10] > 100 µM | [14] > 100 µM | [11] > 100 µM | [12] > 100 µM

Cc1ccccc1NC(=O)C(=O)c1c(O)c2ccc(O)cc2oc1=O
inactive: [1] > 100 µM | [3] > 100 µM | [4] > 100 µM | [5] > 100 µM | [6] > 100 µM | [13] > 100 µM | [9] > 100 µM | [10] > 100 µM | [14] > 100 µM | [11] > 100 µM | [12] > 100 µM

CCCN(CCC)c1c([N+](=O)[O-])cc(C(N)=O)cc1[N+](=O)[O-]
inactive: [1] > 100 µM | [2] 91 µM | [4] 78 µM | [5] > 100 µM | [6] > 100 µM | [7] > 100 µM | [8] > 100 µM | [13] > 100 µM | [9] 58.3 µM | [14] > 100 µM | [12] 65.5 µM

CC12CCC(=O)N1c1ccc([N+](=O)[O-])cc1N2 (stereo not given)
inactive: [1] > 100 µM | [3] > 100 µM | [4] > 100 µM | [5] > 100 µM | [6] > 100 µM | [7] > 100 µM | [8] > 100 µM | [13] > 100 µM | [9] > 100 µM | [10] > 100 µM | [14] > 100 µM | [11] > 100 µM | [12] > 100 µM

O=C(O)c1ccccc1NS(=O)(=O)c1ccc([N+](=O)[O-])cc1
inactive: [1] > 100 µM | [2] > 100 µM | [3] > 100 µM | [4] > 100 µM | [5] > 100 µM | [6] > 100 µM | [7] > 100 µM | [8] > 100 µM | [13] > 100 µM | [9] > 100 µM | [10] > 100 µM | [14] > 100 µM | [11] > 100 µM | [12] > 100 µM
